# Measured values reported in PMC11061460, “Acyl pyrazole sulfonamides as new antidiabetic agents: synthesis, glucosidase inhibition studies, and molecular docking analysis” (Frontiers in Chemistry, 2024).
# Where two headings read alike, the source gives them in different places.
# Experiments:
# [1] = molecular target: α-glucosidase (Saccharomyces cerevisiae, UniProt P53341); experiment: biochemical; type: biochemical
# [2] = tested on: β-glucosidase; experiment: β-glucosidase inhibitory assay in 96-well plates (p-NPG, absorbance 405 nm); type: biochemical; conditions: concentration of 1 mM; end concentration of 100 µM in each well
# Protocol: An already established method was employed to perform α- and β-glucosidase inhibitory assays in 96-well plates ([Kazmi et al., 2017]). In this assay, phosphate buffer (0.07 M pH 6.8) was used to prepare 2.5 U/mL of α-glucosidase, 2.0 U/mL of β-glucosidase, and substrate 4-nitrophenyl-β-D-glucopyranoside (p-NPG) (10 mM) solutions. In addition, 1 mM solution of each test compound was prepared in 10% DMSO to achieve an end concentration of 100 µM in each well. Initially, 10 µL of the respective enzyme was incubated with 10 µL of test compounds for 5 min at 37 °C. Subsequently, 10 µL of p-NPG was added in each well followed by an incubation period of 30 min at 37 °C before adding 80 µL of Na2CO3 (200 mM) as a stop solution to each well. The absorbance was measured at 405 nm, and the percentage inhibition for each of the test compounds was determined by the following equation.
# Percentage inhibition = 100–[Slope of test compound/Slope of enzyme control] × 100.
# Acarbose was used as a standard drug for evaluating the efficacy of test compounds against α- and β-glucosidase. The inhibitory concentration 50 (IC50) for each of the test compound was determined by GraphPad prism version 10.0.
# [3] = read-out: α-glucosidase inhibition IC50 ± SEM
# Chain of α-glucosidase (P53341 whole entry): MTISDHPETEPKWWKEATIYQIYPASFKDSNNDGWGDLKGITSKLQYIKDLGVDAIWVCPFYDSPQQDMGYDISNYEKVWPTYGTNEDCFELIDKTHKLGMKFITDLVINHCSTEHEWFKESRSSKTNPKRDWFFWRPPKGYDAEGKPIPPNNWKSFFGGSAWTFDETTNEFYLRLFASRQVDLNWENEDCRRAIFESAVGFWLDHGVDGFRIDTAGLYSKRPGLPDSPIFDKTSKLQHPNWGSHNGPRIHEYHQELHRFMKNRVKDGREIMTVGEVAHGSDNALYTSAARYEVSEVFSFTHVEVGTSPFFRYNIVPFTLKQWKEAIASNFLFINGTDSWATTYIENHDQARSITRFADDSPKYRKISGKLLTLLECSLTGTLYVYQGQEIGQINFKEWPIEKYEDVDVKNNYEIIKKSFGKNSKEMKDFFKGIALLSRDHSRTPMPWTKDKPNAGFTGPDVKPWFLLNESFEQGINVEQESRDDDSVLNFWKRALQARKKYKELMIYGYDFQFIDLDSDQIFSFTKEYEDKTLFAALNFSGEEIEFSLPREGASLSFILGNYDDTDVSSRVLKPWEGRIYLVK
"IC50 [1, 3] [µM]",Structure (SMILES),β-glucosidase inhibition %age inhibition [2] [%],IC50 [1] [µM],melting point [°C],reduction in activity on switching chlorine from para- to meta-position ([1]; relative to 5a) [%],potency relative to acarbose (times/fold more potent) [1]
2.77 ± 0.24,"Cc1nn(C(=O)c2cccc([N+](=O)[O-])c2)c(C)c1/N=N/c1ccc(S(N)(=O)=O)cc1 [Compound 5f, (E)-4-((3,5-Dimethyl-1-(3-nitrobenzoyl)-1H-pyrazol-4-yl)diazenyl)benzenesulfonamide]",27.4,,,,
,"COc1cccc(C(=O)n2nc(C)c(/N=N/c3ccc(S(N)(=O)=O)cc3)c2C)c1 [Compound 5j, (E)-4-((1-(3-Methoxybenzoyl)-3,5-dimethyl-1H-pyrazol-4-yl)diazenyl)benzenesulfonamide]",7.55,17.9 ± 1.16,,,
,"Cc1ccccc1C(=O)n1nc(C)c(/N=N/c2ccc(S(N)(=O)=O)cc2)c1C [Compound 5g, (E)-4-((3,5-Dimethyl-1-(2-methylbenzoyl)-1H-pyrazol-4-yl)diazenyl)benzenesulfonamide]",21.0,3.47 ± 0.43,,,
,"Cc1nn(C(=O)c2ccc(Cl)cc2)c(C)c1/N=N/c1ccc(S(N)(=O)=O)cc1 [Compound 5a, (E)-4-((1-(4-Chlorobenzoyl)-3,5-dimethyl-1H-pyrazol-4-yl)diazenyl)benzenesulfonamide]",34.3,1.13 ± 0.06,,,
,"COc1ccc(C(=O)n2nc(C)c(/N=N/c3ccc(S(N)(=O)=O)cc3)c2C)cc1OC [Compound 5d, (E)-4-((1-(3,4-Dimethoxybenzoyl)-3,5-dimethyl-1H-pyrazol-4-yl)diazenyl)benzenesulfonamide]",18.5,4.53 ± 0.12,226 to 228,,
,"Cc1nn(C(=O)c2ccc(Br)cc2)c(C)c1/N=N/c1ccc(S(N)(=O)=O)cc1 [Compound 5i, (E)-4-((1-(4-Bromobenzoyl)-3,5-dimethyl-1H-pyrazol-4-yl)diazenyl)benzenesulfonamide]",11.2,19.1 ± 1.07,235 to 237,,
,"C[C@H]1O[C@H](O[C@H]2[C@H](O)[C@@H](O)[C@@H](O[C@H]3[C@H](O)[C@@H](O)C(O)O[C@@H]3CO)O[C@@H]2CO)[C@H](O)[C@@H](O)[C@@H]1N[C@H]1C=C(CO)[C@@H](O)[C@H](O)[C@H]1O (stereo partly shown) [Acarbose, reference compound]",63.7,,,,
,"Cc1nn(C(=O)c2cccc(Cl)c2)c(C)c1/N=N/c1ccc(S(N)(=O)=O)cc1 [Compound 5b, (E)-4-((1-(3-Chlorobenzoyl)-3,5-dimethyl-1H-pyrazol-4-yl)diazenyl)benzenesulfonamide]",32.1,2.22 ± 0.11,,50,
3.29 ± 0.09,"COc1ccc(C(=O)n2nc(C)c(/N=N/c3ccc(S(N)(=O)=O)cc3)c2C)cc1 [Compound 5c, (E)-4-((1-(4-Methoxybenzoyl)-3,5-dimethyl-1H-pyrazol-4-yl)diazenyl)benzenesulfonamide]",12.9,,202 to 205,,
9.22 ± 0.45,"Cc1ccc(C(=O)n2nc(C)c(/N=N/c3ccc(S(N)(=O)=O)cc3)c2C)cc1 [Compound 5h, (E)-4-((3,5-Dimethyl-1-(4-methylbenzoyl)-1H-pyrazol-4-yl)diazenyl)benzenesulfonamide]",14.6,,218 to 220,,
,"Cc1n[nH]c(C)c1/N=N/c1ccc(S(N)(=O)=O)cc1 [Compound 5k, (E)-4-((3,5-Dimethyl-1H-pyrazol-4-yl)diazenyl)benzenesulfonamide]",25.1,28.3 ± 1.45,188 to 190,,

Structure (SMILES),"IC50 [1, 3] [µM]",β-glucosidase inhibition %age inhibition [2] [%],IC50 [1] [µM],melting point [°C],reduction in activity on switching chlorine from para- to meta-position ([1]; relative to 5a) [%],potency relative to acarbose (times/fold more potent) [1]
"Cc1nn(C(=O)c2ccc([N+](=O)[O-])cc2)c(C)c1/N=N/c1ccc(S(N)(=O)=O)cc1 [Compound 5e, (E)-4-((3,5-Dimethyl-1-(4-nitrobenzoyl)-1H-pyrazol-4-yl)diazenyl)benzenesulfonamide]",4.11 ± 0.19,11.7,,231 to 233,,eight
